# Test results taken from patent US12398196B2, “Fused polypeptide with multifunctional activities and use thereof” (NANJING ANJI BIOLOGICAL TECHNOLOGY CO., LTD., priority 2019, dated 2025).
# Ends that are not written are not given here.
# Tests used:
# [1] = tested on: SD rats with CCl4-induced hepatic fibrosis; test: CCl4-induced hepatic fibrosis animal model; assay type: in vivo; settings: CCl4 8 weeks, polypeptides 6 mg/kg s.c. once a day, colchicine intragastric 5 times/week
# Method: Source and strain: SPF level, SD rats, provided by Shanghai Xipuer-Bikai laboratory Animal Co., Ltd. (laboratory animal license: SCXK (hu) 2013-0016)
# There were 10 rats in each group. Modeling was performed on the rats. Each group other than the blank group was injected with 40% CCl4 intraperitoneally twice a week, the first injection was performed at 3 mL/kg, and then administration was performed at 2 mL/kg. Administration was performed for 8 weeks, and a total of 16 injections were provided to induce hepatic fibrosis. After the intraperitoneal injection of CCl4 for the fourth time, polypeptide therapy was started on the next day, and administration was performed by subcutaneous injection once a day until the end of induction. After the intraperitoneal injection of CCl4 for the fourth time, colchicine was administrated on the next day at 200 μg/kg, 5 times a week, and intragastric administration therapy was implemented. After induction for 8 weeks, the administration was stopped. On the second day, the SD rats were dissected, blood was taken, and the liver tissue was taken and stored in a refrigerator at −80° C. for later use. The expressions of AST and ALT in serum and HYP in the rat liver tissue were detected.
# [2] = tested on: mice with myocardial fibrosis; test: Isoprenaline-induced myocardial fibrosis model; assay type: in vivo; settings: BALB/c mice, isoprenaline 5 mg/kg 7 days; 12 mg/kg s.c. twice a day
# Method: 1. Experimental Mice: 10-Week-Old Male BALB/c Mice (with an Average Weight of 20 g).
# In the model group, the experimental mice were injected with isoprenaline (ISO) (5 mg/kg) subcutaneously on the back of the mice every day for 7 consecutive days, and the mice were injected with normal saline subcutaneously (200 μL/mouse) every day. In the blank group, normal saline was injected subcutaneously (200 μL/mouse) every day. While a model was made, polypeptide drugs were administrated for treatment by subcutaneous injection. After the 8th day, blood was taken and was centrifuged, the supernatant was taken, and the content of TGF-β1 in serum was detected.
# Streptococcus pneumoniae = test: Mouse pneumonia model, bacterial pneumonia; assay type: in vivo, BALB/C mice; design: unit not given here; settings: nasal drip, average values + standard deviation
# Source text: (§1) A mouse pneumonia model was successfully established by using a nasal drip method. BALB/C mice with a body weight of 18-24 g were selected, and then anesthetized with ether on day 0, day 1 and day 2, respectively, prepared Streptococcus pneumoniae bacteria solution, adenovirus concentrated solution, Mycoplasma pneumoniae, Chlamydia pneumoniae, protozoa and pneumonia fungi were slowly dropped into the nasal cavity of the mice, so that the bacteria solutions entered the trachea and bronchi, and the bacteria solutions were prevented from flowing into the esophagus during the operation to avoid inactivation of the bacteria solutions, so that the mouse pneumonia model was established. After the model was successfully established, the polypeptide according to the present disclosure was administered, as shown in FIG. 9 and Table 7. […] The experimental results are represented on the basis of average values+standard deviation.
# Chlamydia pneumoniae = test: Mouse pneumonia model, chlamydia pneumonia; assay type: in vivo, BALB/C mice; design: unit not given here; settings: nasal drip, average values + standard deviation
# Source text: as §1
# pneumonia fungi = test: Mouse pneumonia model, fungal pneumonia; assay type: in vivo, BALB/C mice; design: unit not given here; settings: nasal drip, average values + standard deviation
# Source text: as §1
# [3] = tested on: SD rats with bleomycin-induced pulmonary fibrosis; test: Bleomycin-induced pulmonary fibrosis animal model; assay type: in vivo
# Method: Source and strain: clean SD rats, provided by Comparative Medicine Center of Yangzhou University (laboratory animal production license: SCXK (Su) 2012-0004); Certification of Using of Laboratory Animal: SYXK (Su) 2012-0035).
# SD rats were anesthetized by intraperitoneal injection of 1 mL/100 g 4% chloral hydrate. After anesthesia, the rats were fixed and their necks were disinfected by using cotton with 75% alcohol. The skin of the rat neck was longitudinally cut with scissors, and the fascia and muscle were longitudinally bluntly torn with tweezers to expose the trachea. A syringe was inserted into the trachea to inject 5 mg/kg bleomycin, while a blank group was injected with an equal amount of normal saline. Then a rat plate was quickly erected and rotated, the rats' breathing was observed, the neck wound was sterilized after rotation and was sewn, and an amoxicillin anti-inflammatory drug was sprinkled on the suture. After the operation, the rats were put back into a dry and clean cage for resting, waiting was performed for awakening. The rats were awakened after about 1-2 hours, and then fed normally. On the 7th day after modeling, modeling group animals randomly fell into a model group, a Nintedanib positive drug group, polypeptide I, II, III and IV dosage groups, and a normal control group, and the groups were administered separately for an administration cycle of 14 days. Living situations of rats were observed every day and their weights were weighed. After administration for 14 days, the eyeballs were removed and blood was taken, the rats were dissected, and lungs were taken. The content of TGF-β1 in serum and the content of HYP in lung tissues were detected.
# [4] = tested on: SD rats with renal fibrosis; test: Renal fibrosis model (ureter ligation); assay type: in vivo; settings: 6 mg/kg s.c. twice a day, 14 days
# Method: Clean grade male SD rats, purchased from Nanjing Qinglong Mountain Animal Farm, and weighed 180-200 g at the time of purchase, 190-210 g at the beginning of modeling, and 180-200 g at the beginning of administration.
# A renal fibrosis animal model was established. SD rats were anesthetized with 4% chloral hydrate, injected with 1 mL/100 g intraperitoneally, fixed to an operation board, and sterilized in an operation area for later use. […] Muscular layers and abdominal walls were sewed layer by layer, the suture was disinfected with alcohol. After SD rats woke up, the rats were put into a cage for feeding. In the blank group, ureter was not ligated, and other steps were the same.
# Then, the animals fell into a blank group, a model group, and polypeptide administration groups, with 10 animals in each group, and the administration was started on the second day after the operation, and was performed for 14 days. After administration for 14 days, blood was taken and supernatant was taken to detect the content of TGF-β1 in serum.
# adenovirus = test: Mouse pneumonia model, viral pneumonia; assay type: in vivo, BALB/C mice; design: unit not given here; settings: nasal drip, average values + standard deviation
# Source text: as §1
# Mycoplasma pneumoniae = test: Mouse pneumonia model, mycoplasma pneumonia; assay type: in vivo, BALB/C mice; design: unit not given here; settings: nasal drip, average values + standard deviation
# Source text: as §1
# mice with skin fibrosis = test: Bleomycin-induced skin fibrosis model; assay type: in vivo, C57/BL black mice; settings: C57/BL mice, bleomycin s.c. 28 days; 10 mg/kg s.c. twice a day
# Method: Male C57/BL black mice aged 6-8 weeks, purchased from Nanjing Qinglong Mountain Animal Farm. Bleomycin (10 μg/mL) was injected subcutaneously every day for 28 days to form skin fibrosis. During the modeling period, the administration groups were given polypeptide drugs twice a day for treatment. After modeling, the mice were killed on the next day, and the skin tissue of the mouse back was taken to detect the content of HYP in the skin tissue. [table]
# protozoa = test: Mouse pneumonia model, protozoal pneumonia; assay type: in vivo, BALB/C mice; design: unit not given here; settings: nasal drip, average values + standard deviation
# Source text: as §1
# [5] = tested on: multiple pulmonary infections; test: Mouse pneumonia model, pneumonia caused by pulmonary infections; assay type: in vivo, BALB/C mice; design: unit not given here; settings: nasal drip, average values + standard deviation
# Source text: as §1
# [6] = bleomycin-induced pulmonary fibrosis, polypeptides 10 mg/kg s.c. twice a day, Nintedanib 25 mg/kg intragastric once a day, 14 days
sequence,measurement,setting,value
PRCYRGEGGGGIVRRADRAAVPGGGGRGD [Polypeptide II],"content of AST in serum, difference from model group",[1],highly significantly different from the model group (*** P<0.001)
same,"content of HYP in the liver tissue, difference from model group",[1],highly significantly different from the model group (*** P<0.001)
same,"content of TGF-β1 in serum, difference from model group",[2],highly significantly different from the model group (*P<0.05)
same,Inhibitory effect on pulmonary infections: Bacterial pneumonia,Streptococcus pneumoniae,41.25 ± 9.48
same,Inhibitory effect on pulmonary infections: Chlamydia pneumonia,Chlamydia pneumoniae,45.81 ± 5.21
same,Inhibitory effect on pulmonary infections: Fungal pneumonia,pneumonia fungi,60.32 ± 3.07
same,Survival rate (%),"[3]; bleomycin 5 mg/kg intratracheal, polypeptides 10 mg/kg subcutaneous twice a day for 14 days, positive drug Nintedanib intragastric once a day, model group 57.1%",78.6%
same,reduction of HYP in lung tissues compared with the positive drug,"[3]; bleomycin-induced pulmonary fibrosis, comparison with Nintedanib",better effects than the positive drug
same,"content of HYP in lung tissues, difference from model group",[3]; [6],highly significantly different from the model group (*** P<0.001)
same,"content of TGF-β1 in serum, difference from model group",[3]; [6],highly significantly different from the model group (*** P<0.001)
same,"content of TGF-β1 in serum, difference from model group",[4],highly significantly different from the model group (*** P<0.001)
same,Inhibitory effect on pulmonary infections: Viral pneumonia,adenovirus,50.27 ± 8.08
same,Inhibitory effect on pulmonary infections: Mycoplasma pneumonia,Mycoplasma pneumoniae,45.69 ± 5.72
same,"content of HYP in the skin tissue, difference from model group",mice with skin fibrosis,highly significantly different from the model group (*P<0.05)
same,Inhibitory effect on pulmonary infections: Protozoal pneumonia,protozoa,63.60 ± 6.16
same,Inhibitory effect on pulmonary infections: Pneumonia caused by pulmonary infections,[5],63.15 ± 5.87
